In patent US20220409573A1, “Hippocampus Regeneration And Memory Recovery” (INNOBIOSCIENCE, LLC, priority 2021, published 2022):
pIC50: −log10 of the molar value. Like-named read-outs stand apart in the source and are kept apart here.

Key:
[1] = tested on: dentate gyrus of the hippocampus of wild-type mice; assay: Adult hippocampal neurogenesis (Ki67, DCX immunofluorescence); type: in vivo; details: for percentage of the granular cell layer covered by DCX staining / total number of Ki67+ cells in the SGZ: vs vehicle, 2 mg/kg
Protocol: Animals. Two-month-old C57BC6 wild-type mice were treated and handled according to National Institutes of Health guidelines (NIH, […], Md.). The treatments were performed by intraperitoneal (ip) injection of 2.0 mg/kg ANDRO and wild-type control animals were injected only with saline solution as vehicle.
Perfusion and postfixation. Mice were anesthetized (100 μg ketamine+10 μg xylazine in 10 μl saline/g), and then transcardially perfused with saline, followed by 4% paraformaldehyde (PFA) in 0.1M PBS. The brains were removed and incubated inPBS-4% PFA for 24 h at room temperature, dehydrated in 30% sucrose andkept at 4° C. until analysis.
Tissue sectioning. After dehydration,each mouse brain was sectioned on a cryostate in 12 sets of serial coronal sections of 40 μm thickness (Leica Microsystems,Wetzlar, Germany) and collected in ice-cold-PBS in multiwell dishes.Each set contained 5-7 sections covering the entire length of the hippocampus.
Inmunofluorescence for Ki67 and Doublecortin (DCX). Sections were washed with PBS 3 times for 5 min and then incubated in blocking solution (3% donkey serum, 3% BSA, 0.5% Triton X-100 in PBS) for 4 h. Then, tissues were incubated overenight with primary antibodies at 4° C. Primary antibodiesused were:rabbit anti-Ki67 (Abcam), rabbit anti-DCX (Cell Signaling Technology Inc., Beverly, Mass., USA), monoclonal anti-NeuN (Millipore, Billerica, Mass., USA). After washing 3 times with 0.5% Triton X-100 PBS, sections were incubated with Dy Light (Abcam) conjugated secondary antibodies for 2 h at room temperature. Slices were mounted on gelatin-coated slides with Fluoromont-G(Electron Microscopy Sciences, Hatfield, Pa., USA). For quantification, Ki67 positive cells were countedusing a fluorescence microscope (Olympus BX51, Tokyo, Japan). Cells were counted in all sections of one set (see tissue sectioning). Total cells counted in one set were multiplied by the total number of sets to obtain an estimation of the total number of Ki67+ cells in the complete hippocampus. For quantification of the % area covered by DCX, double labeling DCX/NeuN was carried. The total area of the granular cell layer was estimated as the area positive for NeuN staining and the percentage of this area covered by DCX staining was estimated. This image analysis was carried out using the ImageJ software (NIH, USA). Images shown were analyzed by confocal laser microscopy (Olympus FV 1000) and z-projections were generated with ImageJ software.

[2] = tested on: CA3-CA1 connections in hippocampal slices; assay: Electrophysiology in Wt hippocampal slices (fEPSP, PPF, LTP, LTD); type: cell-based, mice
Protocol: Slice Preparation and Electrophysiology. […] Slices were transferred to an experimental chamber (2 ml), superfused (3 ml/min, at 20-22° C.) with gassed ACSF and visualized by trans-illumination with a binocular microscope (MSZ-10, Nikon, Melville, N.Y.). To evoke field excitatory postsynaptic potentials (fEPSPs), we stimulate with bipolar concentric electrodes (Platinum/Iridium, 125 μm OD diameter, FHC Inc., Bowdoin, Me.) generated by a stimulator (Axon 700b, Molecular Devices, Sunnyvale, Calif.) and connected to an isolation unit (Isoflex, AMPI, Jerusalem, Israel) . The stimulation was in the Stratum Radiatum within 100-200 μm from the recording site. The paired pulse facilitation index was calculated by ((R2−R1)/R1), where R1 and R2 were the peak amplitudes of the first and second fEPSP respectively. To generate LTP we used Theta Burst Stimulation (TBS) consisting of 5 trains of stimulus with an inter-train interval of 20 s. Each train consisted of 10 bursts at 5 Hz and each burst having 4 pulses at 100 Hz. To generate LTD we used Low Frequency Stimulation (LFS) consisting in 900 paired pulses at 1 Hz. Recordings were filtered at 2.0-3.0 kHz, sampled at 4.0 kHz using an A/D converter, and stored with pClamp 10 (Molecular Devices). Evoked postsynaptic responses were analyzed off-line, using an analysis software (pClampfit, Molecular Devices), which allowed visual detection of events, computing only those events that exceeded and arbitrary threshold.

[3] = tested on: AT8-positive neurons in APPswe/PS-1 mice; assay: AT8 immunohistochemistry in treated APPswe/PS-1 mice; type: in vivo
[4] = target: T1, Immunoprecipitated GSK-3β from hippocampus of wild-type mice (Mus musculus, UniProt Q9WV60); assay: Luminometric GSK-3β activity assay; type: biochemical
T1 construct: the hippocampus of two month-old wild-type mice were lysed in immunoprecipitation buffer; from tissue; host or cells: hippocampus of two-month-old wild-type mice, immunoprecipitated with anti-GSK-3β antibody (Santa Cruz Biotechnology) on protein G beads
Protocol: Immunoprecipitation. The immunoprecipitation was performed as previously described (Garrido et al, 2002). Briefly, the hippocampus of two month-old wild-type mice were lysed in immunoprecipitation buffer (25 mM HEPES pH 7.4, 125 mM NaCl, 25 mM NaF, 1 mM EDTA, 1 mM EGTA, 1% NP-40) including phosphatase inhibitors (1 mM NaVO3 and 200 nM okadaic acid) and the protease inhibitor cocktail described above. 200 μg of total proteins from lysate were precleared by using protein G-Sepharose beads (Santa Cruz Biotechnology) for 1 h at 4° C. and then were incubated with anti-GSK-3β antibody (Santa Cruz Biotechnology) and new protein G beads for 4 h at 4° C. The immunocomplexes were finally pelleted and washed three times with cold immunoprecipitation buffer.
GSK-3β activity assay. IC50 of ANDRO was determined by a luminometric GSK-3β activity assay. […] Briefly, ANDRO was tested at different concentrations and diluted in kinase buffer containing final concentrations of: 40 mM Tris pH 7.5; 20 mM MgCl2; 0,1 mg/ml BSA. Diluted ANDRO was added to 25 μM pGS-2 peptide substrate (Millipore, Billerica, USA), immunoprecipited GSK-3β and 10 μM ATP (Cell Signaling, Boston, USA) to a total assay volume of 50 μl. The enzymatic reaction was stopped after 10 min of incubation to room temperature by adding 50 μl Kinase Glo (Promega, Madison, USA). The luminometric signal was allowed to stabilize for 10 min and the measured with a Luminometer TURNER DESIGNS model TD-2020.
Immunoprecipitated GSK-3β from hippocampus of wild-type mice was incubated with ATP and pGS-2 peptide substrate for 5 min, then the reaction was stopped and the kinase activity was determined in a luminometer.

[5] = tested on: Aβ oligomers in the hippocampus of APPswe/PS-1 mice; assay: Slot blot of Aβ oligomers with A11 antibody; type: in vivo
[6] = 2-month-old mice, 2 mg/kg i.p. 3 times per week for 4 weeks

T1 sequence (Q9WV60 whole entry): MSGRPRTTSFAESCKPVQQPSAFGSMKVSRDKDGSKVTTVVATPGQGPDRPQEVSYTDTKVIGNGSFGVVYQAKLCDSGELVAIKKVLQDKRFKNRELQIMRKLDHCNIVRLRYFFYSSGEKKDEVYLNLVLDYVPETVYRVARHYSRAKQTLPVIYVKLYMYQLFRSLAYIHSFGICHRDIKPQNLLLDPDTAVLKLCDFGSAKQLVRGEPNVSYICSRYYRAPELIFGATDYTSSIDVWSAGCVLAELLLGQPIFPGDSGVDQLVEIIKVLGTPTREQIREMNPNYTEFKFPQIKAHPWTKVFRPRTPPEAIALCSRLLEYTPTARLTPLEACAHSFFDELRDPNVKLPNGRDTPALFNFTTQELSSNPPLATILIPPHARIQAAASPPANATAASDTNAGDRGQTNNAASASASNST

pIC50 ([4]; different concentrations of ATP, read-out: IC50 using different concentrations of ATP): ~5.25 | IC50 with increased substrate concentration ([4]; different concentrations of the substrate): increase in the IC50 | pIC50 ([4]; preincubation 10 min, 10 μM ATP, 25 μM pGS-2 peptide substrate, read-out: IC50 of GSK-3β activity): 5.25
Compound: C=C1CC[C@@H]2C(C)(CO)[C@H](O)CC[C@@]2(C)C1C/C=C1/C(=O)OC[C@H]1O (stereo in doubt) [ANDRO, 3-(2-(Decahydro-6-hydroxy-5-(hydroxymethyl)-5,8a-dimethyl-2-methylenenaphthyl)ethylidene)dihydro-4-hydroxyfuran-2(3H)-one]
density of immature neurons positive for DCX [1, 6]: increase in the density of immature neurons | percentage of the granular cell layer covered by DCX staining [1, 6]: significantly increased | total number of Ki67+ cells in the SGZ [1, 6]: significantly increased the total number of Ki67^+ cells | total number of Ki67+ cells in the SGZ ([1]; 2-month-old mice, 2 mg/kg i.p. 3 times per week for 4 weeks, listed as Ando): significant increase in the total number of Ki67^+ cell | percentage of the granular cell layer covered by DCX staining ([1]; 2-month-old mice, 2 mg/kg i.p. 3 times per week for 4 weeks, listed as Andro): significant increase in the percentage of the granular cell layer area covered by DCX staining | morphology of DCX+ cells ([1]; compared to control mice): more complex morphology | fEPSP amplitude (basal synaptic transmission) ([2]; ANDRO (5 μM), 30 min, Wt slices): increased the fEPSP amplitude | paired pulse facilitation (PPF) ratio ([2]; Wt slices): does not increase PPF ratio | LTP induction or maintenance ([2]; Wt slices in presence of ANDRO, TBS): do not observed alteration in the LTP induction or maintenance | induction of LTD (fEPSP slope after LFS) ([2]; hippocampal slices, 6-BIO 10 nM): LTD was inhibited | number of AT8-positive neurons next to amyloid deposits ([3]; 6 month-old APPswe/PS-1 mice, circular area surrounding plaques): clear decrease in the number of AT8-positive neurons | total AT8-positive cells outside the circular area around the plaques ([3]; hippocampus): decrease in the number of these cells | level of Aβ oligomers (A11 slot-blot) ([5]; 7 month-old APPswe/PS-1 mice): did not show significant changes | levels of Aβ-oligomers (A11 slot blot) ([5]; FIG. 3G (old APPswe/PS-1 mice per legend)): did not show significant changes
